Laboratory results: paper PMC11631053, “A receptor-based assay to study the sweet and bitter tastes of sweeteners and binary sweet blends: the SWEET project” (Chemical Senses, 2024)
Like-named read-outs stand apart in the source and are kept apart here. Marks after values point to notes of the source that are not given here.

Legend:
TAS2R4 = target: T1, TAS2R4 (Homo sapiens, UniProt Q9NYW5); test: Calcium mobilization assay, HEK293T-Gα16gust44 cells expressing TAS2R4; details: maximal concentration tested: sucralose 100 mM, neotame 30 µM, Ace-K 300 mM, RebA 4 mM, RebM 4 mM, mogroside V 5 mM, erythritol 200 mM, D-allulose 500 mM, thaumatin 100 mM
T1 sequence (Q9NYW5 1-299): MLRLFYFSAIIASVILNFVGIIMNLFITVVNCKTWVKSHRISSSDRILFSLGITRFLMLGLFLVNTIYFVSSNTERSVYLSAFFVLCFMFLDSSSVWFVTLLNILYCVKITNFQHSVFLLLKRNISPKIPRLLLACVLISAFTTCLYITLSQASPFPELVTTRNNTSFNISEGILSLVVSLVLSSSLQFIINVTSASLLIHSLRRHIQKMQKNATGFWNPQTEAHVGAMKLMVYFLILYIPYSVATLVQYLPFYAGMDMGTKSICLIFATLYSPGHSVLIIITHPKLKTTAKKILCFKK
Protocol: (§1) Different concentration ranges were tested depending on the injected sweet compound. […] All of the concentration-receptor combinations were measured in triplicate, and each experiment was repeated at least 3 times. The Ca^2+ change was expressed as a fractional change in fluorescent light intensity: ΔF/F = (F − F0)/F0, where F was the fluorescent light intensity at each point, and F0 was the value of fluorescent light emitted prior to stimulus application. To calculate dose–response relationships, the changes in fluorescence upon stimulus application were averaged, mock-subtracted and baseline-corrected. The resulting obtained dose–response data were adjusted by using a 4-parameter logistic equation. The half-maximal effective concentration (EC50) was calculated by using SigmaPlot software (Systat Software, San Jose, CA, USA) as described in supplemental Supplementary Figs. S1, S2, and S3.

TAS2R13 = target: T2, TAS2R13 (Homo sapiens, UniProt Q9NYV9); test: Calcium mobilization assay, HEK293T-Gα16gust44 cells expressing TAS2R13; details: maximal concentration tested: sucralose 100 mM, neotame 30 µM, Ace-K 300 mM, RebA 4 mM, RebM 4 mM, mogroside V 5 mM, erythritol 200 mM, D-allulose 500 mM, thaumatin 100 mM
T2 sequence (Q9NYV9 1-303): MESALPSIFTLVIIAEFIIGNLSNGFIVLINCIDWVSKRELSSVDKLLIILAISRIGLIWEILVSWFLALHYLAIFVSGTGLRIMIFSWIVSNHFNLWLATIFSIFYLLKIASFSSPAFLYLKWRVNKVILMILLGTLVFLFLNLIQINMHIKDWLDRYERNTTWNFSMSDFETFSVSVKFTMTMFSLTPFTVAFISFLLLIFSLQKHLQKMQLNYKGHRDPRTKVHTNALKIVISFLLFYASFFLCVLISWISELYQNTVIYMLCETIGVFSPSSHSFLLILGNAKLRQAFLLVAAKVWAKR
Protocol: (§2) Different concentration ranges were tested depending on the injected sweet compound. […] All of the concentration-receptor combinations were measured in triplicate, and each experiment was repeated at least 3 times. The Ca^2+ change was expressed as a fractional change in fluorescent light intensity: ΔF/F = (F − F0)/F0, where F was the fluorescent light intensity at each point, and F0 was the value of fluorescent light emitted prior to stimulus application. To calculate dose–response relationships, the changes in fluorescence upon stimulus application were averaged, mock-subtracted and baseline-corrected. The resulting obtained dose–response data were adjusted by using a 4-parameter logistic equation.

TAS2R5 = target: T3, TAS2R5 (Homo sapiens, UniProt Q9NYW4); test: Calcium mobilization assay, HEK293T-Gα16gust44 cells expressing TAS2R5; details: maximal concentration tested: sucralose 100 mM, neotame 30 µM, Ace-K 300 mM, RebA 4 mM, RebM 4 mM, mogroside V 5 mM, erythritol 200 mM, D-allulose 500 mM, thaumatin 100 mM
T3 sequence (Q9NYW4 1-299): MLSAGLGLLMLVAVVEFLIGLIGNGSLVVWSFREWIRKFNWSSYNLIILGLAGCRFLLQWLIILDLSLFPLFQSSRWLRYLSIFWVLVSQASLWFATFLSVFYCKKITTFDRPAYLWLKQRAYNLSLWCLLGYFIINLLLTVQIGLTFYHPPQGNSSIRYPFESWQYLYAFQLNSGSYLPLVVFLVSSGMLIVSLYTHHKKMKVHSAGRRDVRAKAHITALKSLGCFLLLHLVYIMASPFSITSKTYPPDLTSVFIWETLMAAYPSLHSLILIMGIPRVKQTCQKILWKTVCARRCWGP
Protocol: as §1

TAS2R9 = target: T4, TAS2R9 (Homo sapiens, UniProt Q9NYW1); test: Calcium mobilization assay, HEK293T-Gα16gust44 cells expressing TAS2R9; details: maximal concentration tested: sucralose 100 mM, neotame 30 µM, Ace-K 300 mM, RebA 4 mM, RebM 4 mM, mogroside V 5 mM, erythritol 200 mM, D-allulose 500 mM, thaumatin 100 mM
T4 sequence (Q9NYW1 1-312): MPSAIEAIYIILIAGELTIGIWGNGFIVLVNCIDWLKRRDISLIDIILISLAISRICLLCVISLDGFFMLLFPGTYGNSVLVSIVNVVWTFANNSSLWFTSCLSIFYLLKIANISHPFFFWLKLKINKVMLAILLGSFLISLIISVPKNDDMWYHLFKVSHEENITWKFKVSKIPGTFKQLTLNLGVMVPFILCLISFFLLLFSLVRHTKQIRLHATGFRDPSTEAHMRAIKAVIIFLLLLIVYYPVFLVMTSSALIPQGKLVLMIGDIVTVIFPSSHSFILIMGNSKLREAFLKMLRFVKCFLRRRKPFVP
Protocol: as §1

[1] = sucrose = 1, cited from earlier work
TAS2R19 = target: T5, TAS2R19 (Homo sapiens, UniProt P59542); test: Calcium mobilization assay, HEK293T-Gα16gust44 cells expressing TAS2R19; details: maximal concentration tested: sucralose 100 mM, neotame 30 µM, Ace-K 300 mM, RebA 4 mM, RebM 4 mM, mogroside V 5 mM, erythritol 200 mM, D-allulose 500 mM, thaumatin 100 mM
T5 sequence (P59542 1-299): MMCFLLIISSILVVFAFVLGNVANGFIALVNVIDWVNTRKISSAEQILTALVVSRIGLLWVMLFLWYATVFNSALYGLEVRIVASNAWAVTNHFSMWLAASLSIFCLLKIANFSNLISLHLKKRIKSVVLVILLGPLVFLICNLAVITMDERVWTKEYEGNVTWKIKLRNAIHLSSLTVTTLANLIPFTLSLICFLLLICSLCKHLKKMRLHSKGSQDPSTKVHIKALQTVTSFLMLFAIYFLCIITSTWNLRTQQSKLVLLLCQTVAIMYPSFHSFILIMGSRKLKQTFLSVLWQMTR
Protocol: as §2

TAS2R60 = target: T6, TAS2R60 (Homo sapiens, UniProt P59551); test: Calcium mobilization assay, HEK293T-Gα16gust44 cells expressing TAS2R60; details: maximal concentration tested: sucralose 100 mM, neotame 30 µM, Ace-K 300 mM, RebA 4 mM, RebM 4 mM, mogroside V 5 mM, erythritol 200 mM, D-allulose 500 mM, thaumatin 100 mM
T6 sequence (P59551 1-318): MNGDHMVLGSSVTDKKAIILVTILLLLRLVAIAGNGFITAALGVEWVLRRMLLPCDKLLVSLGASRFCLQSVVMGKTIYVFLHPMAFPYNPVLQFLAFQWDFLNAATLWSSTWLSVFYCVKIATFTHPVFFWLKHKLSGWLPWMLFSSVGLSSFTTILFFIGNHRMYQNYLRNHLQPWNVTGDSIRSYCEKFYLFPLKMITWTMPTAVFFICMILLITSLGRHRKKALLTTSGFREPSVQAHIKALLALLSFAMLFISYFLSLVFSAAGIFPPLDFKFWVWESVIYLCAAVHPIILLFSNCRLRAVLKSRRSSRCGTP
Protocol: as §1

[2] = ref Schiffman and Gatlin (1993)

Row | Molecule | Response of TAS2R4 (TAS2R4) | Response of TAS2R13 (TAS2R13) | Response of TAS2R5 (TAS2R5) | Response of TAS2R9 (TAS2R9) | Response of TAS2R19 (TAS2R19) | Response of TAS2R60 (TAS2R60) | Sweetness potency ([1]; ref Nofre and Tinti (2000)) | Sweetness potency ([1]; ref Fujimaru et al. (2012)) | Sweetness potency ([1]; ref Jia and Yang (2009)) | Sweetness potency [1, 2] | Sweetness potency ([1]; ref Prakash et al. (2014)) | Sweetness potency ([1]; ref Ko et al. (2020)) | Sweetness potency ([1]; ref van der Wel and Loeve (1972))
1 | COC(=O)[C@H](Cc1ccccc1)NC(=O)[C@H](CC(=O)O)NCCC(C)(C)C [Neotame] | − | − | − | − | − | − | 10,000^a |  |  |  |  |  | 
2 | OC[C@@H](O)[C@@H](O)CO [Erythritol, erythritol] | − | − | − | − | − | − |  | 0.9^f |  |  |  |  | 
3 | C[C@H](CC[C@@H](O[C@@H]1O[C@H](CO[C@@H]2O[C@H](CO)[C@@H](O)[C@H](O)[C@H]2O)[C@@H](O)[C@H](O)[C@H]1O[C@@H]1O[C@H](CO)[C@@H](O)[C@H](O)[C@H]1O)C(C)(C)O)[C@H]1CC[C@@]2(C)[C@@H]3CC=C4[C@@H](CC[C@H](O[C@@H]5O[C@H](CO[C@@H]6O[C@H](CO)[C@@H](O)[C@H](O)[C@H]6O)[C@@H](O)[C@H](O)[C@H]5O)C4(C)C)[C@]3(C)[C@H](O)C[C@]12C [Mogroside V, mogroside V] | − | − | − | − | − | − |  |  | 500^c |  |  |  | 
4 | CC1=CC(=O)NS(=O)(=O)O1 [Ace-K, acesulfame-K] | − | − | − | − | − | − |  |  |  | 200^g |  |  | 
5 | O=C(CO)[C@H](O)[C@H](O)[C@H](O)CO [D-allulose] | − | − | − | − | + | − |  |  |  |  |  | 0.6^h | 

Now from value to molecule, other results behind:

Row | Response of TAS2R4 (TAS2R4) | Response of TAS2R13 (TAS2R13) | Response of TAS2R5 (TAS2R5) | Response of TAS2R9 (TAS2R9) | Response of TAS2R19 (TAS2R19) | Response of TAS2R60 (TAS2R60) | Molecule | Sweetness potency ([1]; ref Nofre and Tinti (2000)) | Sweetness potency ([1]; ref Fujimaru et al. (2012)) | Sweetness potency ([1]; ref Jia and Yang (2009)) | Sweetness potency [1, 2] | Sweetness potency ([1]; ref Prakash et al. (2014)) | Sweetness potency ([1]; ref Ko et al. (2020)) | Sweetness potency ([1]; ref van der Wel and Loeve (1972))
6 | − | − | − | − | − | − | C=C1C[C@@]23CC[C@H]4[C@@](C)(CCC[C@@]4(C)C(=O)O[C@@H]4O[C@H](CO)[C@@H](O)[C@H](O[C@@H]5O[C@H](CO)[C@@H](O)[C@H](O)[C@H]5O)[C@H]4O[C@@H]4O[C@H](CO)[C@@H](O)[C@H](O)[C@H]4O)[C@@H]2CC[C@]1(O[C@@H]1O[C@H](CO)[C@@H](O)[C@H](O[C@@H]2O[C@H](CO)[C@@H](O)[C@H](O)[C@H]2O)[C@H]1O[C@@H]1O[C@H](CO)[C@@H](O)[C@H](O)[C@H]1O)C3 [RebM, Rebaudioside M] |  |  |  |  | 250^d |  | 
7 | − | − | − | − | − | − | thaumatin |  |  |  |  |  |  | 100,000^b
8 | − | − | − | − | − | − | OC[C@H]1O[C@H](O[C@]2(CCl)O[C@H](CCl)[C@@H](O)[C@@H]2O)[C@H](O)[C@@H](O)[C@H]1Cl [Sucralose, sucralose] |  |  |  | 600^g |  |  | 
